PMC11123979, “Discovery of Nine Dipeptidyl Peptidase-4 Inhibitors from Coptis chinensis Using Virtual Screening, Bioactivity Evaluation, and Binding Studies” (Molecules, 2024)
Where two headings read alike, the source gives them in different places.

Tests used:
DPP-4 [1] = target: T1, DPP-4 (Homo sapiens, UniProt P27487); test: DPP-4 inhibition assay (commercial DPP-4 inhibitor screening assay kit, fluorescence); assay type: biochemical; details: for IC50: dose-response curves, read-out: IC50 value of the DPP-4 inhibitory activity; for inhibition at 30 µM: read-out: DPP-4 inhibition (primary screening)
T1 construct: purchased Cayman Chemical Company 700210
Procedure: The DPP-4 inhibitory activity of 39 potential compounds obtained via virtual screening was tested using a commercial DPP-4 inhibitor screening assay kit (Item No. 700210, Cayman Chemical Company, Ann Arbor, MI, USA), and the kit’s instructions were followed exactly. The fluorescence intensity was measured at an excitation/emission wavelength of 360/460 nm using an EnVision Multilabel Reader (2104 PerkinElmer, Waltham, MA, USA). The possibility of false positives was eliminated by assessing the autofluorescence of each test compound. […] These compounds were prepared at a concentration of 30 μM in deionized water that contained 0.5% DMSO. […] The half-maximal inhibitory concentration (IC50) was determined using GraphPad Prism 9 software.

DPP-4 [2] = target: T1, DPP-4; test: SPR-based binding assay (BIAcore T200, DPP-4 immobilized on CM5 chip); details: 'Affinity' module, 1:1, 25 °C, Tris-HCl pH 8.0
Procedure: The binding affinity between DPP-4 and six alkaloids in Coptis chinensis was evaluated using the BIAcore T200 system (GE Healthcare, Uppsala, Sweden). All SPR-related materials were obtained from GE Healthcare, and DPP-4 (D3446) was purchased from Sigma-Aldrich Chemical Co. (St. Louis, MO, USA). The DPP-4 protein, dissolved in PBS at a concentration of 40 ng/μL, was immobilized onto the surface of a CM5 sensor chip using a standard amine-coupling procedure. The test compounds were prepared at varying concentrations in a solution of Tris-Hcl (pH 8.0) and injected over the surface of the chip at a rate of 30 μL·min^−1 and a temperature of 25 °C. A reference flow cell without the immobilization of DPP-4 served as a control for non-specific binding. […] The chip could be regenerated and reused multiple times after it was treated with glycine–HCl (10 mM; pH 2.0). The test compounds were evaluated using the single-cycle kinetics mode across a two-fold concentration series (1.17–100 µM). The equilibrium constant (KD) was calculated based on the 1:1 reaction ratio between the molecule and protein, using the ‘affinity” module in the Biacore T200 software.

T1 sequence (P27487 whole entry): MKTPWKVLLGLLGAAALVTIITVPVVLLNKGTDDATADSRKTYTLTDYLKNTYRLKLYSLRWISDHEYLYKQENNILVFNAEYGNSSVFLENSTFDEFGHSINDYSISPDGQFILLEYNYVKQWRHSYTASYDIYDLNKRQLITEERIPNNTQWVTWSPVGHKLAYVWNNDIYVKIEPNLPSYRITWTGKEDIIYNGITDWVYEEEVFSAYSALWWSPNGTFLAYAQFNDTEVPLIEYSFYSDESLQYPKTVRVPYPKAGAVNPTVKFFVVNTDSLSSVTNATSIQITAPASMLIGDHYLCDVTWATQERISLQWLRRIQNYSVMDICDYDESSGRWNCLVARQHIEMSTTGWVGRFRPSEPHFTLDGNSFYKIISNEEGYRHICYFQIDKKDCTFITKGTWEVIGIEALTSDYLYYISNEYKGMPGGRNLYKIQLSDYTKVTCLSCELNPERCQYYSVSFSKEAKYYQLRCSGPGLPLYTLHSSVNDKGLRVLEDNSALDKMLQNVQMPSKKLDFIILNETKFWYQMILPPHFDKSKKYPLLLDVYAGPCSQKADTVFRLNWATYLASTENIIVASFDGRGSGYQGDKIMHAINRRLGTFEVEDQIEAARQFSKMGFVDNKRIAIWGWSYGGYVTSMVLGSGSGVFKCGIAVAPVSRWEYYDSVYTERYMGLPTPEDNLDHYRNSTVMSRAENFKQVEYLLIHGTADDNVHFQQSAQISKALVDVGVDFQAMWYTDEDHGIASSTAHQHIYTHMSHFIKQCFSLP

IC50 (DPP-4 [1]) | inhibition at 30 µM (DPP-4 [1]; final concentration of 30 μM) | Compound | Kd (DPP-4 [2]) | inhibition at 30 µM (DPP-4 [1])
53.7 µM | > 40% | COc1ccc2cc3[n+](cc2c1OC)CCc1cc2c(cc1-3)OCO2 [berberine] | 30 µM | –
49.8 µM | > 40% | COc1cc2c(cc1OC)-c1cc3ccc(OC)c(OC)c3c[n+]1CC2 [palmatine] | – | –
27.4 µM | > 40% | COc1ccc2cc3[n+](cc2c1O)CCc1cc2c(cc1-3)OCO2 [berberrubine] | 18.8 µM | –
13.4 µM | > 40% | COc1cc2c(cc1O)CC[n+]1cc3c4c(ccc3cc1-2)OCO4 [groenlandicine] | 15 µM | –
3.63 µM | > 40% | COc1ccc2cc3[n+](cc2c1OC)CCc1cc(O)c(O)cc1-3 [demethyleneberberine] | – | –
35.6 µM | > 40% | COc1cc2c(cc1OC)-c1cc3ccc4c(c3c[n+]1CC2)OCO4 [epiberberine] | – | –

Compound | IC50 (DPP-4 [1]) | inhibition at 30 µM (DPP-4 [1]; final concentration of 30 μM) | Kd (DPP-4 [2]) | inhibition at 30 µM (DPP-4 [1])
c1c2c(cc3c1OCO3)-c1cc3ccc4c(c3c[n+]1CC2)OCO4 [coptisine] | 8.91 µM | > 40% | 13.8 µM | –
COc1cc2c(cc1O)CC[n+]1cc3c(OC)c(OC)ccc3cc1-2 [jatrorrhizine] | 26.9 µM | – | 12.1 µM | > 40%
COc1cc2c(cc1O)-c1cc3ccc(OC)c(OC)c3c[n+]1CC2 [columbamine] | 3.44 µM | > 40% | 8.11 µM | –
